{"source": "patent US5284872A", "about": "“Nitrato alkanoic acid derivatives, methods for their production, pharmaceutical compositions containing the derivatives and medicinal uses thereof” (Schwarz Pharma AG, priority 1990, dated 1994)", "key": {"[1]": {"experiment": "NO release / rate of NO formation from organic nitrates", "details": "pH 7.4; for rate of NO formation: 1 mM compound, same conditions as ISDN"}, "[2]": {"test_system": "soluble guanylate cyclase", "experiment": "Stimulation of soluble guanylate cyclase", "assay_type": "biochemical", "details": "for stimulation of guanylate cyclase, dependence on cysteine: with or without cysteine"}, "[3]": {"test_system": "precontracted rat aortic rings", "experiment": "Relaxation of precontracted rat aortic rings", "details": "for pEC50: read-out: EC50 of concentration-dependent relaxation; for potency relative to ISDN (factor): versus isosorbid dinitrate", "excerpt": "Compounds SPM 5185 and SPM 5186 caused a similar concentration-dependent relaxation of precontracted rat aortic rings with a potency exceeding that of ISDN (isosorbid dinitrate) by a factor of 5 (EC50 approx. 10^-6 M)."}, "[4]": {"test_system": "normotonous conscious rats and spontaneous hypertensive rats", "experiment": "Peroral application to conscious rats: arterial pressure and heart rate", "assay_type": "in vivo, rat"}, "conscious beagle dogs": {"test_system": "conscious beagle dogs", "experiment": "Hemodynamic profile in conscious beagle dogs", "assay_type": "in vivo, beagle dog", "details": "for mean arterial and venous pressure: 0.01-1 μmol/kg i.v. and 1-10 μmol/kg p.o.; for arterial vessel compliance / cardiac output: i.v. and p.o.; for effectiveness in reducing arterial and central venous pressure compared with GTN (dose-response curves): versus GTN and IS-5-N", "excerpt": "The hemodynamic profile of SPM 5185 and SPM 5186 in direct comparison to classical nitrates was investigated in conscious beagle dogs."}, "[5]": {"test_system": "normotonous (WKY) and spontaneously hypertensive rats (SHR)", "experiment": "Endothelium dependent and independent blood pressure regulation in chronically instrumented conscious rats (acetylcholine and adenosine as test stimuli)", "assay_type": "in vivo, rat", "details": "single oral application", "excerpt": "The effect of a single peroral application of SPM 5186 on endothelium dependent and independent blood pressure regulation was investigated in chronically instrumented conscious rats with acetylcholine and adenosine serving as test stimuli."}}, "note": "pEC50: −log10 of the molar value."}
{"compound": "CCOC(=O)[C@H](CS)NC(=O)C(C)(C)CO[N+](=O)[O-]", "note": "[SPM 3672, nitratopivaline carboxylic acid-L-cysteine ethyl ester, reference compound]", "values": [{"measurement": "spontaneous NO release", "setting": "[1]; absence of exogenous cysteine, concentration of 1 mM", "value": "42.7±9.8", "unit": "nM NO/min"}, {"measurement": "stimulation of soluble guanylate cyclase", "setting": "[2]; absence of exogenous cysteine", "value": "stimulated soluble guanylate cyclase"}, {"measurement": "effect of addition of cysteine on enzyme stimulation", "setting": "[2]; addition of cysteine", "value": "did not further enhance enzyme stimulation"}]}
{"compound": "CCOC(=O)[C@H](CSC(=O)C(C)NC(C)=O)NC(=O)C(C)(C)CO[N+](=O)[O-]", "note": "(stereo partly drawn) [SPM 5185, N-nitrato-pivaloyl-S-(N-acetyl-alanyl)-L-cysteine ethyl ester]", "values": [{"measurement": "rate of NO formation", "setting": "[1]", "value": "35.1±5.1", "unit": "nM NO/min"}, {"measurement": "stimulation of guanylate cyclase, dependence on cysteine", "setting": "[2]", "value": "stimulated guanylate cyclase only in the presence of cysteine"}, {"measurement": "pEC50", "setting": "[3]", "value": "~6.00"}, {"measurement": "potency relative to ISDN (factor)", "setting": "[3]", "value": 5}, {"measurement": "heart rate", "setting": "[4]; normotonous conscious rats", "value": "only a slight increase"}, {"measurement": "mean arterial pressure", "setting": "[4]; normotonous conscious rats", "value": "nearly no influence"}, {"measurement": "estimated duration of action", "setting": "conscious beagle dogs", "value": "long-acting nitrates"}, {"measurement": "mean arterial and venous pressure", "setting": "conscious beagle dogs", "value": "dose-dependent decrease"}, {"measurement": "arterial vessel compliance", "setting": "conscious beagle dogs", "value": "enhanced"}, {"measurement": "cardiac output", "setting": "conscious beagle dogs", "value": "remained unaffected"}, {"measurement": "effectiveness in reducing arterial and central venous pressure compared with GTN (dose-response curves)", "setting": "conscious beagle dogs", "value": "even more effective than the most potent classical nitrate GTN"}]}
{"compound": "CCOC(=O)[C@H](CSC(=O)CNC(C)=O)NC(=O)C(C)(C)CO[N+](=O)[O-]", "note": "[SPM 5186, N-nitrato-pivaloyl-S-(N-acetyl-glycyl)-L-cysteine ethyl ester]", "values": [{"measurement": "rate of NO formation", "setting": "[1]", "value": "24.8±5.4", "unit": "nM NO/min"}, {"measurement": "stimulation of guanylate cyclase, dependence on cysteine", "setting": "[2]", "value": "stimulated guanylate cyclase only in the presence of cysteine"}, {"measurement": "pEC50", "setting": "[3]", "value": "~6.00"}, {"measurement": "potency relative to ISDN (factor)", "setting": "[3]", "value": 5}, {"measurement": "alteration of endogenous dilator mechanisms", "setting": "[5]", "value": "Neither in normotonous (WKY) nor in spontaneously hypertensive rats (SHR) could any significant alteration of endogenous dilator mechanisms be observed"}, {"measurement": "systolic and diastolic arterial blood pressure", "setting": "[4]; same dose, spontaneous hypertensive rats", "value": "marked decrease"}, {"measurement": "estimated duration of action", "setting": "conscious beagle dogs", "value": "long-acting nitrates"}, {"measurement": "mean arterial and venous pressure", "setting": "conscious beagle dogs", "value": "dose-dependent decrease"}, {"measurement": "arterial vessel compliance", "setting": "conscious beagle dogs", "value": "enhanced"}, {"measurement": "cardiac output", "setting": "conscious beagle dogs", "value": "remained unaffected"}, {"measurement": "effectiveness in reducing arterial and central venous pressure compared with GTN (dose-response curves)", "setting": "conscious beagle dogs", "value": "even more effective than the most potent classical nitrate GTN"}]}
